PubChem BioAssay (NCI)
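Method: 48-hour compound exposure of cells in 96-well plates, five concentrations, linear interpolation of endpoints. At the GI50, growth is halved. TGI is the concentration that stops growth completely.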

How the values were obtained:
Assay in all cases: growth of human tumour cells (NCI), 48 h
SR leukemia = tested on: SR leukemia
HL-60(TB) leukemia = tested on: HL-60(TB) leukemia
UACC-62 melanoma = tested on: UACC-62 melanoma
MALME-3M melanoma = tested on: MALME-3M melanoma
LOX IMVI melanoma = tested on: LOX IMVI melanoma
HOP-62 NSCLC = tested on: HOP-62 NSCLC
NCI-H460 lung = tested on: NCI-H460 lung
A498 renal = tested on: A498 renal
NCI-H23 lung = tested on: NCI-H23 lung
IGROV1 ovarian = tested on: IGROV1 ovarian
T-47D breast = tested on: T-47D breast
SK-MEL-2 melanoma = tested on: SK-MEL-2 melanoma
TK-10 renal = tested on: TK-10 renal
CAKI-1 renal = tested on: CAKI-1 renal
BT-549 breast = tested on: BT-549 breast
CCRF-CEM leukemia = tested on: CCRF-CEM leukemia
EKVX NSCLC = tested on: EKVX NSCLC
HT29 colon = tested on: HT29 colon
SF-539 CNS = tested on: SF-539 CNS
DU-145 prostate = tested on: DU-145 prostate
OVCAR-4 ovarian = tested on: OVCAR-4 ovarian
HCC-2998 colon = tested on: HCC-2998 colon
SF-295 CNS = tested on: SF-295 CNS
UO-31 renal = tested on: UO-31 renal
SW-620 colon = tested on: SW-620 colon
UACC-257 melanoma = tested on: UACC-257 melanoma
RXF 393 renal = tested on: RXF 393 renal
K-562 leukemia = tested on: K-562 leukemia
OVCAR-5 ovarian = tested on: OVCAR-5 ovarian
SNB-75 CNS = tested on: SNB-75 CNS
SK-MEL-5 melanoma = tested on: SK-MEL-5 melanoma
NCI/ADR-RES ovarian = tested on: NCI/ADR-RES ovarian
COLO 205 colon = tested on: COLO 205 colon
RPMI-8226 leukemia = tested on: RPMI-8226 leukemia
ACHN renal = tested on: ACHN renal
MDA-MB-435 = tested on: MDA-MB-435
SNB-19 CNS = tested on: SNB-19 CNS
OVCAR-3 ovarian = tested on: OVCAR-3 ovarian
HCT-116 colon = tested on: HCT-116 colon
A549 NSCLC = tested on: A549 NSCLC
HCT-15 colon = tested on: HCT-15 colon
M14 melanoma = tested on: M14 melanoma
MOLT-4 leukemia = tested on: MOLT-4 leukemia
KM12 colon = tested on: KM12 colon
SF-268 CNS = tested on: SF-268 CNS
SK-MEL-28 melanoma = tested on: SK-MEL-28 melanoma
NCI-H226 lung = tested on: NCI-H226 lung
PC-3 prostate = tested on: PC-3 prostate
U251 CNS = tested on: U251 CNS
SN12C renal = tested on: SN12C renal
MDA-MB-231 breast = tested on: MDA-MB-231 breast
HOP-92 NSCLC = tested on: HOP-92 NSCLC
OVCAR-8 ovarian = tested on: OVCAR-8 ovarian
HS 578T breast = tested on: HS 578T breast
MCF7 breast = tested on: MCF7 breast
NCI-H522 lung = tested on: NCI-H522 lung
SK-OV-3 ovarian = tested on: SK-OV-3 ovarian

O=C1/C(=C/c2ccccc2[N+](=O)[O-])Oc2ccc(O)cc21
GI50 (SR leukemia): 2.69 µM | TGI (SR leukemia): > 100 µM | GI50 (HL-60(TB) leukemia): 2.99 µM | TGI (HL-60(TB) leukemia): 9.91 µM | GI50 (UACC-62 melanoma): 2.26 µM | TGI (UACC-62 melanoma): 6.2 µM | GI50 (MALME-3M melanoma): 2.08 µM | TGI (MALME-3M melanoma): 5.85 µM | GI50 (LOX IMVI melanoma): 1.61 µM | TGI (LOX IMVI melanoma): 3.36 µM | GI50 (HOP-62 NSCLC): 7 µM | TGI (HOP-62 NSCLC): 38.9 µM | GI50 (NCI-H460 lung): 3.09 µM | TGI (NCI-H460 lung): 10.1 µM | GI50 (A498 renal): 2 µM | TGI (A498 renal): 16.9 µM | GI50 (NCI-H23 lung): 2.1 µM | TGI (NCI-H23 lung): 5.17 µM | GI50 (IGROV1 ovarian): 1.62 µM | TGI (IGROV1 ovarian): 6.18 µM | GI50 (T-47D breast): 2.84 µM | TGI (T-47D breast): 19.4 µM | GI50 (SK-MEL-2 melanoma): 3.23 µM | TGI (SK-MEL-2 melanoma): 15.1 µM | GI50 (TK-10 renal): 3.2 µM | TGI (TK-10 renal): 7.7 µM | GI50 (CAKI-1 renal): 1.62 µM | TGI (CAKI-1 renal): 3.83 µM | GI50 (BT-549 breast): 3.16 µM | TGI (BT-549 breast): 12.5 µM | GI50 (CCRF-CEM leukemia): 2.81 µM | TGI (CCRF-CEM leukemia): > 100 µM | GI50 (EKVX NSCLC): 3.77 µM | TGI (EKVX NSCLC): 14.8 µM | GI50 (HT29 colon): 2.83 µM | TGI (HT29 colon): 11.3 µM | GI50 (SF-539 CNS): 2.16 µM | TGI (SF-539 CNS): 5.61 µM | GI50 (DU-145 prostate): 2.26 µM | TGI (DU-145 prostate): 5.38 µM | GI50 (OVCAR-4 ovarian): 2.58 µM | TGI (OVCAR-4 ovarian): 9.58 µM | GI50 (HCC-2998 colon): 2.74 µM | TGI (HCC-2998 colon): 7.94 µM | GI50 (SF-295 CNS): 4.11 µM | TGI (SF-295 CNS): 15.4 µM | GI50 (UO-31 renal): 1.95 µM | TGI (UO-31 renal): 6.86 µM | GI50 (SW-620 colon): 1.66 µM | TGI (SW-620 colon): 4.12 µM | GI50 (UACC-257 melanoma): 4.33 µM | TGI (UACC-257 melanoma): 38.3 µM | GI50 (RXF 393 renal): 1.8 µM | TGI (RXF 393 renal): 3.61 µM | GI50 (K-562 leukemia): 2.84 µM | TGI (K-562 leukemia): > 100 µM | GI50 (OVCAR-5 ovarian): 2.21 µM | TGI (OVCAR-5 ovarian): 5.72 µM | GI50 (SNB-75 CNS): 1.44 µM | TGI (SNB-75 CNS): 42.4 µM | GI50 (SK-MEL-5 melanoma): 8.89 µM | TGI (SK-MEL-5 melanoma): 22 µM | GI50 (NCI/ADR-RES ovarian): 2.47 µM | TGI (NCI/ADR-RES ovarian): 7.36 µM | GI50 (COLO 205 colon): 2.19 µM | TGI (COLO 205 colon): 5.88 µM | GI50 (RPMI-8226 leukemia): 2.4 µM | TGI (RPMI-8226 leukemia): 7.56 µM | GI50 (ACHN renal): 2.42 µM | TGI (ACHN renal): 8.98 µM | GI50 (MDA-MB-435): 2.66 µM | TGI (MDA-MB-435): 7.52 µM | GI50 (SNB-19 CNS): 5.24 µM | TGI (SNB-19 CNS): 19 µM | GI50 (OVCAR-3 ovarian): 1.9 µM | TGI (OVCAR-3 ovarian): 3.88 µM | GI50 (HCT-116 colon): 1.75 µM | TGI (HCT-116 colon): 4.17 µM | GI50 (A549 NSCLC): 4.83 µM | TGI (A549 NSCLC): 26 µM | GI50 (HCT-15 colon): 1.85 µM | TGI (HCT-15 colon): 5.47 µM | GI50 (M14 melanoma): 2.02 µM | TGI (M14 melanoma): 4.99 µM | GI50 (MOLT-4 leukemia): 3.29 µM | TGI (MOLT-4 leukemia): > 100 µM | GI50 (KM12 colon): 4.38 µM | TGI (KM12 colon): 16.4 µM | GI50 (SF-268 CNS): 6.32 µM | TGI (SF-268 CNS): 35.9 µM | GI50 (SK-MEL-28 melanoma): 2.37 µM | TGI (SK-MEL-28 melanoma): 6.08 µM | GI50 (NCI-H226 lung): 1.73 µM | TGI (NCI-H226 lung): 4.77 µM | GI50 (PC-3 prostate): 3.08 µM | TGI (PC-3 prostate): 14.2 µM | GI50 (U251 CNS): 2.77 µM | TGI (U251 CNS): 11.1 µM | GI50 (SN12C renal): 2.52 µM | TGI (SN12C renal): 7.68 µM | GI50 (MDA-MB-231 breast): 2.6 µM | TGI (MDA-MB-231 breast): 9.46 µM | GI50 (HOP-92 NSCLC): 2.24 µM | TGI (HOP-92 NSCLC): 9.33 µM | GI50 (OVCAR-8 ovarian): 2.86 µM | TGI (OVCAR-8 ovarian): > 100 µM | GI50 (HS 578T breast): 1.9 µM | TGI (HS 578T breast): 6.35 µM | GI50 (MCF7 breast): 1.73 µM | TGI (MCF7 breast): 5.52 µM | GI50 (NCI-H522 lung): 2.08 µM | TGI (NCI-H522 lung): 4.83 µM | GI50 (SK-OV-3 ovarian): 15.3 µM | TGI (SK-OV-3 ovarian): 62.1 µM
